From patent publication US8911953B2, “TDF-related compounds and analogs thereof, analogs and bioactive fragments” (Thrasos Innovation, Inc., priority 2005, dated 2014) come the findings set out here.

One test relates to UUO mice. As to the kind of experiment: Unilateral ureteral obstruction (UUO) mouse model of chronic renal injury. Format: in vivo. As to the method: Schematic of the unilateral urinary obstruction (UUO) mouse model of chronic renal injury. One ureter was ligated on Day 0 (D0) and mice received one of the following treatments: vehicle (control), BMP-7 by intraperitoneal (ip) administration (positive control) or TDFRP by ip, intravenous (iv) or oral (po) administration. Mice were sacrificed on Day 5 (D5) or Day 7 (D7) and the kidneys were evaluated for disease pathology.
Unilateral ureteral obstruction (UUO) is a model resembling human obstructive nephropathy, which represents an inducible chronic model of interstitial fibrosis. UUO is induced by ligation of one ureter, leaving the contra-lateral kidney to serve as a control. As a result of the procedure, mice develop renal tubulointerstitial inflammation, tubulointerstitial fibrosis and tubular atrophy, without hypertension, proteinuria, lipid dysregulation and little glomerular damage contributing to the disease state (Ito et al (2004). J. Urol. February; 171(2 Pt 1): 926-30.; Bhangdia et al. (2003) J. Urol. November; 170(5): 2057-62.; Rawashdeh et al. (2003) Invest Radiol. 2003 March; 38(3): 153-8.; Hruska et al (2000) Am J Physiol Renal Physiol. 2000 July; 79(1): F130-43.). Furthermore, renal fibrosis is associated with alteration of epithelial and fibroblastic cells to myofibroerblasts, along with increased expression of TGF-beta and progressive loss of renal function.

Test [1] has as its system rats with coronary artery ligation. As to the kind of experiment: Left anterior descending (LAD) coronary occlusion model of myocardial injury. As to conditions: for reduction in AN/AR ratio as compared to PBS-treated animals: Day 7. It is filed as in vivo, rat. The procedure: Schematic of the Left Anterior Descending […] (LAD) occlusion model of myocardial injury. The image represents a cross section through the heart of rats showing that treatment with TDFRP or BMP prevents ischemic injury. Left anterior descending arteries were occluded for 20 minutes to induce ischemia. Upon removal of the ligature, blood flow into the heart causes reperfusion injury and apoptosis. After seven days, the heart was stained with Evan's blue dye to differentiate the perfused, unaffected area from the occluded region (area at risk). Four doses of TDFRP (SEQ ID NO:45) were used in the treated animals (pre-occlusion, and 24, 48 and 72 hrs post-occlusion). A) left anterior descending coronary artery ligated to create ischemia, B) infarct areas (IA), C) the unaffected, perfused region. Dyed blue at sacrifice, D) ventricular lumen, E) approximate regional boundary, F) the affected (ischemic) region (AR). Where reperfusion injury leads to apoptosis
The efficacy of TDFRP compound (SEQ ID NO:45) in ameliorating the effects of myocardial ischemia was investigated in the rat after ligation of the coronary artery. […] unmanipulated rats, sorted into two large groups by initial body weight (>300 g pre-surgery) were evaluated. Fourteen rats underwent surgery on week, 12 rats underwent surgery on week 2 and rats were sorted into 3 treatment groups: Group 1, PBS; Group 2, positive control TDF-1; Group 3, test article TDFRP (SEQ ID NO:45) (see Table 13).
Three days prior to surgery, a serum sample was collected from the tail vein of each rat (pre-bleed). On the day of surgery, each rat was administered compound intravenously 2 hr prior to surgery. Surgery was performed sequentially after intubation and ventilation with 0.5% isofluorane anesthetic. Lead II ECG was monitored throughout the surgery. A thoracotomy was performed and the main left coronary artery was occluded for 20 min using a snare technique (FIG. 19). Successful occlusion of the artery was confirmed by ST elevation in lead II ECG within the first 5 minutes of ligation, and by frequent ventricular arrhythmia after 10 minutes of ligation. The snare was released to restore blood flow. The original suture loop was left in place for subsequent re-occlusion on Day 7. After initiation of reperfusion, the chest cavity was closed with 2 layers of suture. Rats were weaned from the ventilator and observed until fully conscious and mobile. Antibiotic (QD) and analgesic (Q8D) were provided. Additional serum samples were collected 6, 24, 72 and 120 hours post occlusion. Additional compound, positive control or vehicle treatments were delivered by intravenous injection in the tail vein at 24, 72 and 120 hours post occlusion.
On Day 7, each rat was anesthetized (ketamine:xyline), the chest cavity re-opened and a terminal blood sample (1 ml) was withdrawn from the abdominal vein. Gross pathology (i.e. inflammation) was noted and graded on a 4 point inflammation scale: 0=no inflammation, 1=slight, 2=moderate, 3=severe and 4=complete pericarditis. The left coronary artery was then re-occluded using the existing stitch and a concentrated solution of Evans Blue dye in saline (20 mg/ml; 0.5 ml/rat) was injected into the heart apex to stain the non-ischemic cardiac tissue blue. The heart was then arrested by injection of a saturated solution of potassium chloride into the right ventricle. The heart was then excised, wrapped in cellophane and stored at −20° C. for 1.5 hour. The cold heart was cut into 10 cross-sectional slices (2 mm/slice) and each section was numbered and incubated separately in triphenyltetrazolium chloride (1% TTC in PBS) for 10 minutes at 37° C. prior to fixing in 4% formaldehyde. Subsequently, each slice was photographed. For each slice, the “area at risk (AR)” and the “area occupied by necrosis (AN)” were measured by morphometry. The ratio of AN to AR is a measure of the degree of damage resulting from the occlusion (FIG. 20).

Positions of bridges follow the written chain, without caps; N, C: chain ends. No end group written: not given here.

Turning to “CYFDDSSNVLCKKYRS (disulfide 1-11 (inferred); not fully specified) [SEQ ID NO:45]”, in the test with UUO mice (5-day model, administered orally, ip or iv), the “severity of tubular damage (percent of renal tubular degradation)” value was “attenuated the severity of tubular damage”. In the test with UUO mice (5-day model, oral 5 mg/kg/24 hours or iv 50 mg/kg/24 hours), the “progression of tubulointerstitial fibrosis disease” value is “attenuated progression”. The “progression of tubulointerstitial fibrosis disease” value in the test with UUO mice (7-day model, oral or iv 5 mg/kg/24 hours) is given as “significantly attenuated”. Further, the “reduction in AN/AR ratio as compared to PBS-treated animals” value in test [1] (10 mg/kg i.v.) stood at 84%. In test [1] (10 mg/kg i.v., Day 7, 4 point inflammation scale), the “reduction in inflammation score as compared to PBS-treated animals” value is 78%. Also, the “inflammation and cytotoxic effects toward cardiomyocytes following myocardial infarction” value in test [1] (myocardial ischemia and reperfusion injury) is “ameliorate inflammation and cytotoxic effects”. Also, in test [1] (rat, in vivo), the “degree of cardiac inflammation” value was “reduces” and the “necrotic area to area at risk ratio (IA/AR)” value is “reduces”.

B1: BMP-7: recombinant human mature BMP-7 (BMP-7 or TDF-1), positive control therapy (protein)
chain: STGSKQRSQNRSKTPKNQEALRMANVAENSSSDQRQACKKHELYVSFRDLGWQDWIIAPEGYAAYYCEGECAFPLNSYMNATNHAIVQTLVHFINPETVPKPCCAPTQLNAISVLYFDDSSNVILKKYRNMVVRACGCH
With B1, the chronic renal injury result in the test with UUO mice (5-day model, ip 300 ug/kg/48 hours) is reported as “Reversal”. In addition, the “UUO chronic renal injury” value in the test on UUO mice (7-day model, ip 300 ug/kg/48 hours) is on record as “Reversal”. Besides, the “reduction in AN/AR ratio as compared to PBS-treated animals” value in test [1] (160 μg/kg i.v.) was determined as 7%.
